Columns and labels:
human KOR receptor = human KOR receptor (Homo sapiens, UniProt P41145); assay: IP-One HTRF assay, potency of KOR agonists, dose-response in transiently transfected COS-7 cells; format: cell-based
human KOR receptor, sequence (P41145 whole entry): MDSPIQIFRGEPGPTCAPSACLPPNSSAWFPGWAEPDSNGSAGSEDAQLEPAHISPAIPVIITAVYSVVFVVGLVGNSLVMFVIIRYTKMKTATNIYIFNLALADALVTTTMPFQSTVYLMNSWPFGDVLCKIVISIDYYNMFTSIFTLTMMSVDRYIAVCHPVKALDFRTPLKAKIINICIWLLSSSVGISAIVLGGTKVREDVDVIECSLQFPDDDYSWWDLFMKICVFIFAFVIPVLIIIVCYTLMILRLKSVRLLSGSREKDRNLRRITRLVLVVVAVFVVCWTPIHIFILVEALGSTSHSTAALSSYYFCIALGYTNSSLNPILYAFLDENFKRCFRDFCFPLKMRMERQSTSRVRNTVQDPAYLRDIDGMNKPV

| SMILES | melting point [°C] | EC50 (human KOR receptor) [nM] |
| --- | --- | --- |
| O=C(Cc1ccc2[nH]c(=O)ccc2c1)N[C@H](CN1CCC(O)C1)c1ccccc1 (stereo in doubt) [Example 51, N-((S)-2-((R)-3-hydroxypyrrolidin-1-yl)-1-phenylethyl)-2-(2-oxo-1,2-dihydroquinolin-6-yl)acetamide] | 196 to 198 | 101 to 1000 |
| Cl.O=C(O)COc1cccc(C(CN2CCCC2)NC(=O)Cc2ccc3c(c2)NC(=O)C3)c1 (stereo not shown) [Example 92, 2-(3-(1-(2-(2-oxoindolin-6-yl)acetamido)-2-(pyrrolidin-1-yl)ethyl)phenoxy)acetic acid] | 104 to 106 | ≤ 50 |
| N#Cc1ccc(Cn2c(=O)oc3ccc(CC(=O)N[C@H](CN4CC[C@H](O)C4)c4ccccc4)cc32)cc1 [Example 59, 2-(3-(4-cyanobenzyl)-2-oxo-2,3-dihydrobenzo[d]oxazol-5-yl)-N-((S)-2-((S)-3-hydroxypyrrolidin-1-yl)-1-phenylethyl)acetamide] | 194 | ≤ 50 |
| CN(C(=O)Cc1ccc2oc(=O)n(Cc3cccc(C(N)=O)c3)c2c1)[C@H](CN1CC[C@H](O)C1)c1ccccc1 [Example 88, 3-((5-(2-(((S)-2-((S)-3-hydroxypyrrolidin-1-yl)-1-phenylethyl)(methyl)amino)-2-oxoethyl)-2-oxobenzo[d]oxazol-3(2H)-yl)methyl)benzamide] | 181 to 183 | ≤ 50 |
| CN(C(=O)Cc1ccc2c(c1)NS(=O)(=O)C2)[C@H](CN1CC[C@H](O)C1)c1ccccc1 [Example 136, 2-(2,2-dioxido-1,3-dihydrobenzo[c]isothiazol-6-yl)-N-((S)-2-((S)-3-hydroxypyrrolidin-1-yl)-1-phenylethyl)-N-methylacetamide] | 232 to 234 | ≤ 50 |
| CN(C(=O)Cc1ccc2oc(=O)n(C)c2c1)[C@H](CN1CCC(O)C1)c1cccc(-c2nn[nH]n2)c1 (stereo in doubt) [Example 107, N-((S)-1-(3-(2H-tetrazol-5-yl)phenyl)-2-((S)-3-hydroxypyrrolidin-1-yl)ethyl)-N-methyl-2-(3-methyl-2-oxo-2,3-dihydrobenzo[d]oxazol-5-yl)acetamide] | 130 to 132 | ≤ 50 |
| CN(C(=O)Cc1ccc2c(c1)NC(=O)C2)[C@H](CN1CC[C@H](F)C1)c1cccc(-c2nn[nH]n2)c1 [Example 113, N-((S)-1-(3-(2H-tetrazol-5-yl)phenyl)-2-((S)-3-fluoropyrrolidin-1-yl)ethyl)-N-methyl-2-(2-oxoindolin-6-yl)acetamide] | 175 to 177 | ≤ 50 |
| CN(C(=O)Cc1ccc2oc(=O)[nH]c2c1)[C@H](CN1CCC(O)C1)c1cccc(-c2nn[nH]n2)c1 (stereo in doubt) [Example 99, N-((S)-1-(3-(2H-tetrazol-5-yl)phenyl)-2-((S)-3-hydroxypyrrolidin-1-yl)ethyl)-N-methyl-2-(2-oxo-2,3-dihydrobenzo[d]oxazol-5-yl)acetamide] | 228 to 230 | ≤ 50 |
| O=C(Cc1ccc2oc(=O)n(Cc3ccccc3)c2c1)N[C@H](CN1CCCC1)c1cccc(O)c1 [Example 20, (S)-2-(3-benzyl-2-oxo-2,3-dihydrobenzo [d]oxazol-5-yl)-N-(1-(3-hydroxyphenyl)-2-(pyrrolidin-1-yl)ethyl)acetamide] | 104 to 106 | ≤ 50 |
| O=C(Cc1ccc2oc(=O)[nH]c2c1)N[C@H](CN1CC[C@H](O)C1)C1CCCCC1 [Example 67, N-((S)-1-cyclohexyl-2-((S)-3-hydroxypyrrolidin-1-yl)ethyl)-2-(2-oxo-2,3-dihydrobenzo[d]oxazol-5-yl)acetamide] | 173 to 174 | ≤ 50 |
| CN(C(=O)Cc1ccc2c(c1)NC(=O)C2)C(CN1CCCC1)c1cccc(OCC(=O)O)c1.Cl (stereo not shown) [Example 87, 2-(3-(1-(N-methyl-2-(2-oxoindolin-6-yl)acetamido)-2-(pyrrolidin-1-yl)ethyl)phenoxy)acetic acid hydrochloride] | 169 to 171 | ≤ 50 |
| N#Cc1cccc(Cn2c(=O)oc3ccc(CC(=O)N[C@H](CN4CC[C@H](O)C4)c4ccccc4)cc32)c1 [Example 72, 2-(3-(3-cyanobenzyl)-2-oxo-2,3-dihydrobenzo[d]oxazol-5-yl)-N-((S)-2-((S)-3-hydroxypyrrolidin-1-yl)-1-phenylethyl)acetamide] | 65 to 68 | ≤ 50 |
| Cn1c(=O)oc2ccc(CC(=O)N[C@H](CN3CCC(O)C3)c3ccccc3)cc21 (stereo in doubt) [Example 45, N-((S)-2-((S)-3-hydroxypyrrolidin-1-yl)-1-phenylethyl)-2-(3-methyl-2-oxo-2,3-dihydrobenzo[d]oxazol-5-yl)acetamide] | 105 to 106 | ≤ 50 |
| CN(C(=O)Cc1ccc2oc(=O)[nH]c2c1)[C@H](CN1CCC(O)C1)c1cccc(OCC(=O)OC(C)(C)C)c1 (stereo in doubt) [Example 77, Tert-butyl 2-(3-((S)-2-((R)-3-hydroxypyrrolidin-1-yl)-1-(N-methyl-2-(2-oxo-2,3-dihydrobenzo[d]oxazol-5-yl)acetamido)ethyl)phenoxy)acetate] | 124 to 125 | ≤ 50 |
| CN(C(=O)Cc1ccc2oc(=O)[nH]c2c1)C(CN1CCCC1)c1cccc(OCC(=O)O)c1 (stereo in doubt) [Example 90, (R)-2-(3-(1-(N-methyl-2-(2-oxo-2,3-dihydrobenzo[d]oxazol-5-yl)acetamido)-2-(pyrrolidin-1-yl)ethyl)phenoxy)acetic acid] | 227 to 229 | 51 to 100 |
| CN(C(=O)Cc1ccc2oc(=O)n(Cc3cccc(-c4nn[nH]n4)c3)c2c1)[C@H](CN1CCC(O)C1)c1ccccc1 (stereo in doubt) [Example 103, 2-(3-(3-(2H-tetrazol-5-yl)benzyl)-2-oxo-2,3-dihydrobenzo[d]oxazol-5-yl)-N-((S)-2-((S)-3-hydroxypyrrolidin-1-yl)-1-phenylethyl)-N-methylacetamide] | 123 to 125 | ≤ 50 |
| CN(C(=O)Cc1ccc2c(c1)NC(=O)C2)[C@H](CN1CC[C@H](O)C1)c1cccc(-c2nn[nH]n2)c1 [Example 110, N-((S)-1-(3-(2H-tetrazol-5-yl)phenyl)-2-((S)-3-hydroxypyrrolidin-1-yl)ethyl)-N-methyl-2-(2-oxoindolin-6-yl)acetamide] | 208 to 210 | ≤ 50 |

Source: US9487510B2, “Substituted heterocyclic acetamides as kappa opioid receptor (KOR) agonists” (Dr. Reddy's Laboratories Ltd., priority 2012, dated 2016)
